Laboratory results reported in patent US6500443B1, “Delivery of a sacrificial substrate to inhibit protease permeation into skin” (Kimberly-Clark Worldwide, Inc., priority 1999, dated 2002).

Conditions: excised skins, modified FRANZ diffusion cells, over a 36 hour period, from treated fabric
Description: The fabrics were then tested for topical delivery of the zinc salt using excised skins in modified FRANZ diffusion cells. The amount of zinc accumulating and penetrating the skin was determined over a 36 hour period.

zinc sulfate monohydrate
accumulation of zinc in skin: 1311 μg/g dry weight of skin | penetration of zinc through skin: 3.2 μg/cm^2/hr
